# From US20170232083A1, “METHODS OF DIAGNOSIS AND TREATMENT OF CELIAC DISEASE IN CHILDREN” (priority 2014, published 2017)
# Test system: PBMC (polyclonal gluten-specific T cells) of paediatric and adult CD patients
# Assay: IFN-γ ELISpot of PBMC after 3 day oral wheat challenge (SFU, % of maximal peptide response, dominance scores, EC50; Examples 5-6)
# Type: cell-based, human
# Details: for IFN-γ ELISpot response: after oral wheat challenge; for Cross-reactive T cell response: following wheat challenge
sequence,measurement,setting,value
LQPRPQPELPYPQP,IFN-γ ELISpot response,"patient A, 11-17 yrs, cut-off 10 SFU",6 SFU
same,Significant response as percentage of maximal peptide SFU,"patient D, max peptide 30.5 SFU",′′′ (41-70% = ′′′)
same,IFN-γ ELISpot response,"patient E, H, 11-17 yrs, cut-off 10 SFU",142 SFU
same,Significant response as percentage of maximal peptide SFU,"patient E, max peptide 224 SFU",′′′ (41-70% = ′′′)
same,IFN-γ ELISpot response,"patient F, 11-17 yrs, cut-off 10 SFU",178 SFU
same,Significant response as percentage of maximal peptide SFU,"patient F, max peptide 178 SFU",+ (>70% = +)
same,IFN-γ ELISpot response,"patient G, 11-17 yrs, cut-off 10 SFU",4 SFU
same,IFN-γ ELISpot response,"patient H (HLA-DQ2.5 homozygote), 3-5yrs, cut-off 10 SFU",45 SFU
same,IFN-γ ELISpot response,"patient H, 11-17 yrs, cut-off 10 SFU",10 SFU
same,Significant response as percentage of maximal peptide SFU,"patient H, max peptide 17 SFU",′′′ (41-70% = ′′′)
same,IFN-γ ELISpot response,"patient ID not given, 11-17 yrs, cut-off 10 SFU",89 SFU
same,Significant response as percentage of maximal peptide SFU,"patient ID not given, max peptide 95 SFU",+ (>70% = +)
same,Significant response as percentage of maximal peptide SFU,"patient II, max peptide 15 SFU",′′′ (41-70% = ′′′)
same,Significant response as percentage of maximal peptide SFU,"patient J, max peptide 196 SFU",+ (>70% = +)
same,Significant response as percentage of maximal peptide SFU,"patient K, max peptide 53 SFU",′′′ (41-70% = ′′′)
same,Significant response as percentage of maximal peptide SFU,"patient L, max peptide 11 SFU",+ (>70% = +)
same,Significant response as percentage of maximal peptide SFU,"patient M, max peptide 48 SFU",+ (>70% = +)
same,IFN-γ ELISpot response,"patient N, 3-5yrs, cut-off 10 SFU",7 SFU
same,IFN-γ ELISpot response,"patient P, 11-17 yrs, cut-off 21.6 SFU",64 SFU
same,Significant response as percentage of maximal peptide SFU,"patient P, max peptide 64 SFU",+ (>70% = +)
same,IFN-γ ELISpot response,"patient Q, 11-17 yrs, cut-off 10 SFU",97 SFU
same,Significant response as percentage of maximal peptide SFU,"patient Q, max peptide 97 SFU",+ (>70% = +)
same,IFN-γ ELISpot response,"patient U, H, 11-17 yrs, cut-off 10 SFU",81 SFU
same,Significant response as percentage of maximal peptide SFU,"patient U, max peptide 81 SFU",+ (>70% = +)
same,IFN-γ ELISpot response,"patient V, 6-10 yrs, cut-off 10 SFU",30 SFU
same,Significant response as percentage of maximal peptide SFU,"patient V, max peptide 35 SFU",+ (>70% = +)
same,IFN-γ ELISpot response,"patient Y, 6-10 yrs, cut-off 10 SFU",11 SFU
same,Significant response as percentage of maximal peptide SFU,"patient Y, max peptide 16 SFU",′′′ (41-70% = ′′′)
same,IFN-γ ELISpot response,"patient eleven, 6-10 yrs, cut-off 10 SFU",38 SFU
same,Significant response as percentage of maximal peptide SFU,"patient eleven, max peptide 57 SFU",′′′ (41-70% = ′′′)
same,Significant response as percentage of maximal peptide SFU,"patient five, max peptide 48 SFU",+ (>70% = +)
same,IFN-γ ELISpot response,"patient four, 3-5yrs, cut-off 10 SFU",24 SFU
same,Significant response as percentage of maximal peptide SFU,"patient four, max peptide 44 SFU",′′′ (41-70% = ′′′)
same,IFN-γ ELISpot response,"patient seven, 6-10 yrs, cut-off 10.5 SFU",6 SFU
same,IFN-γ ELISpot response,"patient ten, 3-5yrs, cut-off 10 SFU",6 SFU
same,IFN-γ ELISpot response,"patient three, 6-10 yrs, cut-off 10.5 SFU",146 SFU
same,IFN-γ ELISpot response,"patient twelve, 11-17 yrs, cut-off 10 SFU",18 SFU
same,IFN-γ ELISpot response,"patient two, 3-5yrs, cut-off 10 SFU",36 SFU
same,Significant response as percentage of maximal peptide SFU,"patient two, max peptide 60 SFU",′′′ (41-70% = ′′′)
LPFPQPEQPFVVV,Cross-reactive T cell response,"subject A, 11-17yrs",1 SFU
same,Significant response as a percentage of maximal peptide SFU,"subject D, 11-17yrs",′′′ (41-70% = ′′′)
same,Cross-reactive T cell response,"subject D, 11-17yrs",20 SFU
same,Significant response as a percentage of maximal peptide SFU,"subject E, 11-17yrs",(6-10% - ^)
same,Cross-reactive T cell response,"subject E, 11-17yrs",16 SFU
same,Significant response as a percentage of maximal peptide SFU,"subject F, 11-17yrs",(6-10% - ^)
same,Cross-reactive T cell response,"subject F, 11-17yrs",15 SFU
same,Cross-reactive T cell response,"subject G, 11-17yrs",3 SFU
same,Cross-reactive T cell response,subject H,3 SFU
same,Cross-reactive T cell response,subject I (3-5yrs/6-10yrs part),7 SFU
same,Significant response as a percentage of maximal peptide SFU,subject J,′ (11-20% = ′)
same,Cross-reactive T cell response,subject J (3-5yrs/6-10yrs part),29 SFU
same,Significant response as a percentage of maximal peptide SFU,subject K,′′ (21-40% = ′′)
same,Cross-reactive T cell response,subject K (3-5yrs/6-10yrs part),18 SFU
same,Cross-reactive T cell response,"subject P, 11-17yrs",20 SFU
same,Significant response as a percentage of maximal peptide SFU,"subject Q, 11-17yrs",′′ (21-40% = ′′)
same,Cross-reactive T cell response,"subject Q, 11-17yrs",31 SFU
same,Significant response as a percentage of maximal peptide SFU,"subject T, 11-17yrs",′′′ (41-70% = ′′′)
same,Cross-reactive T cell response,"subject T, 11-17yrs",42 SFU
same,Cross-reactive T cell response,"subject U, 11-17yrs",8 SFU
same,Significant response as a percentage of maximal peptide SFU,subject V,′′ (21-40% = ′′)
same,Cross-reactive T cell response,subject V (3-5yrs/6-10yrs part),13 SFU
same,Cross-reactive T cell response,subject W (3-5yrs/6-10yrs part),9 SFU
same,Cross-reactive T cell response,subject Y (3-5yrs/6-10yrs part),7 SFU
same,Significant response as a percentage of maximal peptide SFU,subject five,+ (>70% = +)
same,Cross-reactive T cell response,subject five (3-5yrs/6-10yrs part),34 SFU
same,Cross-reactive T cell response,"subject nine, 11-17yrs",1 SFU
same,Cross-reactive T cell response,subject seven (3-5yrs/6-10yrs part),3 SFU
same,Cross-reactive T cell response,subject six (3-5yrs/6-10yrs part),8 SFU
same,Cross-reactive T cell response,subject ten (3-5yrs/6-10yrs part),8 SFU
same,Significant response as a percentage of maximal peptide SFU,subject two,′′ (21-40% = ′′)
same,Cross-reactive T cell response,subject two (3-5yrs/6-10yrs part),18 SFU
